The target in assay [1] is T1, SpyB (synthetic SpyB peptide).
T1 construct: chemically synthesized SpyB peptide (GenScript); SpyB is 35 residues; no tag mentioned
Nature of the assay: tryptophan fluorescence quenching. In kind it is binding, Streptococcus pyogenes. Particulars: 5 μM SpyB, 20 mM HEPES, 100 mM NaCl, 1 mM DTT, pH 7.5, 20°C. The text has this: tryptophan fluorescence quenching on SpyB (synthetic SpyB peptide)

The next assay addresses MBP-SpyB. Particulars: read-out: Hemin, KD; 2.5 μM (Figure 5D; Methods: 5 μM) heme-free monomer, 20 mM HEPES, 100 mM NaCl, 1 mM DTT, pH 7.5, 20°C.

Read-outs that look alike come from different tables or passages of the source.

Here are results for two compounds from publication PMC5061733, “SpyB, a Small Heme-Binding Protein, Affects the Composition of the Cell Wall in Streptococcus pyogenes” (Frontiers in Cellular and Infection Microbiology, 2016).

By Kd is commonly meant a measure of binding affinity in units of concentration. In the case of `C=CC1=C(C)C2=Cc3c(C=C)c(C)c4[n]3[Fe]([Cl])[n]3c(c(C)c(CCC(=O)O)c3=CC3=NC(=C4)C(C)=C3CCC(=O)O)=CC1=N2` [hemin], the dissociation constant Kd was determined as 2.6 µM in assay [1] (read-out: Hemin, KD) and 12 µM on MBP-SpyB.

Consider `C=CC1=C(C)c2cc3[nH]c(cc4nc(cc5[nH]c(cc1n2)c(C)c5CCC(=O)O)C(CCC(=O)O)=C4C)c(C)c3C=C` [protoporphyrin IX], for which, in assay [1] (read-out: Protoporphyrin IX, KD), the dissociation constant (Kd) amounted to 4.9 µM.
